These results are taken from ChEMBL document CHEMBL1201862, “PubChem BioAssay data set” (2004).

Some test systems named below: A549; BT-549; COLO 205; HL-60; KM12; LOX IMVI; Malme-3M; NCI-H23; NCI-H460; NCI-H522; NCI/ADR-RES; OVCAR-3; RPMI-8226; RXF 393; SK-MEL-28; T47D; U-251.
Holding throughout (assay): growth of human tumour cells (NCI), 48 h

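Test compounds were applied to cells in 96-well plates for 48 hours at 5 doses. Abbreviation: GI50, concentration required for 50% inhibition of growth.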 Active and inactive are the calls of the source. Rule as the data show it: active = GI50 up to about 1.1 µM and inactive = higher. Some results are limits rather than exact numbers.

On to `c1ccc(-c2nc(-c3ccccc3)c(-c3ccccc3)[nH]2)cc1`, for which the GI50 is > 100 µM (inactive) in the experiment with A549; > 100 µM (inactive) in the experiment on BT-549; > 100 µM (inactive) in the experiment on COLO 205; 18.1 µM (inactive) in the experiment with HL-60; > 93.8 µM (inactive) with KM12; > 100 µM (inactive) in the experiment on LOX IMVI. The GI50 with Malme-3M was 36.1 µM (inactive); in the experiment with NCI-H23, > 100 µM (inactive); in the experiment on NCI-H460, 44.9 µM (inactive); with NCI-H522 it was > 82.6 µM (inactive); with NCI/ADR-RES it was 60.3 µM (inactive); in the experiment with OVCAR-3, > 100 µM (inactive). The GI50 in the experiment with RPMI-8226 is > 47.6 µM (inactive); in the experiment with RXF 393 it was > 100 µM (inactive); with SK-MEL-28 it was > 100 µM (inactive); in the experiment with T47D it was 42.3 µM (inactive); in the experiment with U-251, 42.3 µM (inactive).
Regarding `Cc1cn(C2CC(O)C(COP(=O)(O)OC3CC(n4c[n+]([BH2-]C#N)c5c(=O)[nH]c(N)nc54)OC3CO)O2)c(=O)[nH]c1=O` (stereo unspecified), the GI50 in the experiment on A549, in the experiment on BT-549, in the experiment on COLO 205, with HL-60, in the experiment with KM12 and in the experiment on LOX IMVI was > 100 µM (inactive) throughout. In addition, the GI50 in the experiment on Malme-3M, in the experiment on NCI-H23, with NCI-H460, in the experiment on NCI-H522, in the experiment with NCI/ADR-RES and in the experiment on OVCAR-3 was > 100 µM (inactive) in each case. The GI50 in the experiment with RPMI-8226, in the experiment on RXF 393, in the experiment with SK-MEL-28, in the experiment on T47D and in the experiment with U-251 was > 100 µM (inactive) throughout.
Take `O=C1C=C(OCCCCl)C(=O)c2c(O)ccc(O)c21`: the GI50 was 0.266 µM (active) with A549; 1.09 µM (active) with BT-549; 0.245 µM (active) in the experiment with COLO 205; 0.792 µM (active) in the experiment on HL-60; 1.78 µM (inactive) with KM12; 0.256 µM (active) with LOX IMVI. The GI50 in the experiment with Malme-3M is 0.167 µM (active); in the experiment on NCI-H23, 0.237 µM (active); with NCI-H460, 1.21 µM (inactive); in the experiment on NCI-H522, 2.36 µM (inactive); in the experiment on NCI/ADR-RES it was 2.65 µM (inactive); in the experiment on OVCAR-3, 0.505 µM (active). The GI50 with RPMI-8226 was 2.06 µM (inactive); in the experiment with RXF 393, 1.69 µM (inactive); with SK-MEL-28, 0.843 µM (active); in the experiment with T47D it was 2.19 µM (inactive); in the experiment on U-251, 2.01 µM (inactive).
Take `NNC(=O)c1ccccc1NC(=O)/C(=C/c1ccccc1)NC(=O)c1ccccc1`: the GI50 was > 100 µM (inactive) in the experiment on A549; 60.4 µM (inactive) with BT-549; > 100 µM (inactive) in the experiment on COLO 205; 76.9 µM (inactive) in the experiment on HL-60; 27.8 µM (inactive) in the experiment with KM12; 68.1 µM (inactive) in the experiment on LOX IMVI. For the same molecule, the GI50 was > 100 µM (inactive) in the experiment on Malme-3M; > 100 µM (inactive) in the experiment with NCI-H23; 80 µM (inactive) in the experiment on NCI-H460; > 100 µM (inactive) with NCI-H522; 56.8 µM (inactive) in the experiment with NCI/ADR-RES; > 100 µM (inactive) in the experiment with OVCAR-3. Also, the GI50 is > 100 µM (inactive) in the experiment with RPMI-8226; > 100 µM (inactive) in the experiment on RXF 393; > 100 µM (inactive) with SK-MEL-28; > 100 µM (inactive) with T47D; 58.6 µM (inactive) in the experiment on U-251.
Consider `Cc1ccc(/C=C2\CCCC(CN3CCCCC3)C2=O)cc1` (stereo unspecified), for which the GI50 is 17.7 µM (inactive) in the experiment with A549; 2.29 µM (inactive) with BT-549; 1.82 µM (inactive) in the experiment on COLO 205; 0.555 µM (active) in the experiment on HL-60; 1.27 µM (inactive) in the experiment with KM12; 1.84 µM (inactive) in the experiment with LOX IMVI. Moreover, the GI50 was 2.51 µM (inactive) with Malme-3M; 2.17 µM (inactive) in the experiment with NCI-H23; 3.89 µM (inactive) in the experiment with NCI-H460; 1.79 µM (inactive) with NCI-H522; 5.38 µM (inactive) in the experiment on NCI/ADR-RES; 1.87 µM (inactive) in the experiment with OVCAR-3. The GI50 in the experiment with RPMI-8226 is > 100 µM (inactive); in the experiment on RXF 393 it was 1.56 µM (inactive); in the experiment with SK-MEL-28, 1.63 µM (inactive); with T47D it was 1.82 µM (inactive); in the experiment with U-251 it was 14.3 µM (inactive).
As for `COc1c(C)c(OC)c2c(c1O)[C@@H]1[C@@H]3Cc4c(OC)c(C)c(OC)c(O)c4[C@H](CNC(=O)c4ccc5ccccc5n4)N3[C@@H](C#N)[C@H](C2)N1C`, the GI50 in the experiment on A549 is 0.00263 µM (active); in the experiment on BT-549 it was 0.000377 µM (active); in the experiment on COLO 205, 0.000891 µM (active); in the experiment on HL-60, 0.000363 µM (active); in the experiment with KM12 it was 0.000371 µM (active); in the experiment with LOX IMVI, 0.00026 µM (active). Besides, the GI50 in the experiment on Malme-3M is 0.000162 µM (active); in the experiment with NCI-H23, 0.000459 µM (active); in the experiment on NCI-H460, 0.00224 µM (active); in the experiment on NCI-H522, 0.000144 µM (active); in the experiment with NCI/ADR-RES it was 0.0101 µM (active); in the experiment on OVCAR-3, 0.000235 µM (active). The GI50 is 0.000324 µM (active) in the experiment on RPMI-8226; 0.00136 µM (active) in the experiment with RXF 393; 0.00251 µM (active) with SK-MEL-28; 0.000277 µM (active) in the experiment on T47D; 0.000632 µM (active) with U-251.
Take `CCOC(=O)N1CCN(Cc2cc(=O)n3ccc(C)cc3n2)CC1`: the GI50 with A549, in the experiment on BT-549, with COLO 205, with HL-60, in the experiment on KM12 and with LOX IMVI was > 100 µM (inactive) each time. For the same molecule, the GI50 in the experiment with Malme-3M, in the experiment with NCI-H23, with NCI-H460, in the experiment on NCI-H522, in the experiment with NCI/ADR-RES and in the experiment on OVCAR-3 was > 100 µM (inactive) in each case. The GI50 in the experiment with RPMI-8226, with RXF 393, with SK-MEL-28, in the experiment with T47D and in the experiment on U-251 was > 100 µM (inactive) each time.
Regarding `CCOC(=O)/C=C/C1=C(Br)[C@@]2(C)CC[C@@H]3c4ccc(O)cc4CC[C@H]3[C@@H]2C1`, the GI50 with A549 is 16.9 µM (inactive); in the experiment on BT-549, 14.3 µM (inactive); in the experiment on COLO 205 it was 17.8 µM (inactive); with HL-60, 17.9 µM (inactive); in the experiment on KM12 it was 16.2 µM (inactive); with LOX IMVI, 7.08 µM (inactive). The GI50 with Malme-3M was 12 µM (inactive); in the experiment with NCI-H23, 13.7 µM (inactive); with NCI-H460 it was 14.7 µM (inactive); in the experiment with NCI-H522, 4.02 µM (inactive); with NCI/ADR-RES, 14.7 µM (inactive); with OVCAR-3, 7.94 µM (inactive). Moreover, the GI50 in the experiment with RPMI-8226 was 2.17 µM (inactive); in the experiment on RXF 393 it was 15.7 µM (inactive); with SK-MEL-28, 16.4 µM (inactive); in the experiment on T47D, 4.86 µM (inactive); with U-251, 16.6 µM (inactive).
With `COc1ncc(C=C(C#N)C#N)c(OC)n1`, the GI50 with A549 was > 100 µM (inactive); with BT-549, 33.7 µM (inactive); in the experiment on COLO 205 it was 36 µM (inactive); in the experiment on HL-60, 16.7 µM (inactive); in the experiment with KM12 it was 50 µM (inactive); in the experiment on LOX IMVI, 30.2 µM (inactive). Besides, the GI50 was 35.2 µM (inactive) with Malme-3M; 31.3 µM (inactive) with NCI-H23; 41 µM (inactive) in the experiment on NCI-H460; 16.7 µM (inactive) in the experiment on NCI-H522; 22.6 µM (inactive) in the experiment with NCI/ADR-RES; 57.9 µM (inactive) in the experiment with OVCAR-3. For the same molecule, the GI50 in the experiment on RPMI-8226 was 24 µM (inactive); in the experiment with RXF 393 it was > 100 µM (inactive); with SK-MEL-28, 44.8 µM (inactive); with T47D, > 100 µM (inactive); in the experiment on U-251, 43.6 µM (inactive).
Consider `Cc1cccc(-n2c(C)nc3ccc(NC4OC(CO)C(O)C(O)C4O)cc3c2=O)c1` (stereo unspecified), for which the GI50 in the experiment with BT-549, with COLO 205, with HL-60, in the experiment on KM12, in the experiment on LOX IMVI and in the experiment with Malme-3M was > 100 µM (inactive) in each case. Further, the GI50 in the experiment with NCI-H23, in the experiment with NCI-H460, in the experiment with NCI-H522, with NCI/ADR-RES, in the experiment with OVCAR-3 and in the experiment on RPMI-8226 was > 100 µM (inactive) throughout. Further, the GI50 with RXF 393, in the experiment on SK-MEL-28, in the experiment with T47D and in the experiment on U-251 was > 100 µM (inactive) each time.
Regarding `COC(=O)c1ccc2c(c1)S/C(=C/c1ccc3ccc4cccc5ccc1c3c45)S2`, the GI50 is 42 µM (inactive) with A549; 35.8 µM (inactive) in the experiment with BT-549; > 100 µM (inactive) with COLO 205; 20.7 µM (inactive) in the experiment with HL-60; 24.4 µM (inactive) in the experiment with KM12; > 100 µM (inactive) in the experiment with LOX IMVI. Besides, the GI50 is 32.7 µM (inactive) in the experiment on Malme-3M; 19 µM (inactive) with NCI-H23; 64.4 µM (inactive) with NCI-H460; 21 µM (inactive) with NCI-H522; 23.7 µM (inactive) in the experiment on NCI/ADR-RES; 23.2 µM (inactive) with OVCAR-3. Also, the GI50 was 38.3 µM (inactive) in the experiment with RPMI-8226, 50.4 µM (inactive) in the experiment on RXF 393, > 100 µM (inactive) in the experiment with T47D and 48.8 µM (inactive) with U-251.
As to `COC(=O)[C@H](Cc1c[nH]c2ccccc12)NC(=O)OCC1OC(n2cc(C)c(=O)[nH]c2=O)CC1N=[N+]=[N-]` (stereo partly specified), the GI50 was > 100 µM (inactive) in the experiment on A549; > 100 µM (inactive) in the experiment on BT-549; > 100 µM (inactive) with COLO 205; > 100 µM (inactive) with HL-60; > 100 µM (inactive) with KM12; 98.6 µM (inactive) with LOX IMVI. Moreover, the GI50 is > 100 µM (inactive) with Malme-3M; 76 µM (inactive) in the experiment on NCI-H23; 49.4 µM (inactive) with NCI-H460; > 100 µM (inactive) with NCI-H522; > 100 µM (inactive) with NCI/ADR-RES; > 100 µM (inactive) with OVCAR-3. Also, the GI50 with RPMI-8226, with RXF 393, in the experiment on T47D and with U-251 was > 100 µM (inactive) in each case.
